{
  "source": "ChEMBL document CHEMBL1137273",
  "about": "“Xanthine mimetics as potent dipeptidyl peptidase IV inhibitors” (Bioorg Med Chem Lett, 2006)",
  "key": {"Dipeptidyl peptidase 4 [1]": {"target": "T1, Dipeptidyl peptidase 4 (Homo sapiens, UniProt P27487)", "T1 sequence (P27487 whole entry)": "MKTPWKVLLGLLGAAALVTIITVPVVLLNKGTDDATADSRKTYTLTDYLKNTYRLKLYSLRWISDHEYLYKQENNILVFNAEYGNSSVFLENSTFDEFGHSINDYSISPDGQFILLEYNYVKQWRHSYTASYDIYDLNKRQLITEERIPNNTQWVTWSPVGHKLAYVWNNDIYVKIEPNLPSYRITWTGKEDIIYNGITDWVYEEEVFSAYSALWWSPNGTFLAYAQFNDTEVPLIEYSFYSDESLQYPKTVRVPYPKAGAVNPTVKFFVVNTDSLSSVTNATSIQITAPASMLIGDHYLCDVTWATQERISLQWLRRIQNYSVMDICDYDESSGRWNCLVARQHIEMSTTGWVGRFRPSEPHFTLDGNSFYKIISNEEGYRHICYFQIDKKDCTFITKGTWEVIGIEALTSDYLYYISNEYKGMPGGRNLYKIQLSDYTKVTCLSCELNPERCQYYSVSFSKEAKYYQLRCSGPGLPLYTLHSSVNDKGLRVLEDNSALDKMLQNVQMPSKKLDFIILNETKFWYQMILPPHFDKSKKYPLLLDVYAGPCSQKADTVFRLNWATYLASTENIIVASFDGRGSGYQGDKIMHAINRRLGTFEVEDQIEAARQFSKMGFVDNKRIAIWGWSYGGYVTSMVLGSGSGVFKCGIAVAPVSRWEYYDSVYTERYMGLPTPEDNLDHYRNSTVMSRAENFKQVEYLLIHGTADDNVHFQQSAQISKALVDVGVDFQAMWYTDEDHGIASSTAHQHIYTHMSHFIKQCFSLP", "assay": "Inhibition of h-DPPIV"}, "Prolyl endopeptidase": {"target": "T2, Prolyl endopeptidase (Homo sapiens, UniProt P48147)", "T2 sequence (P48147 whole entry)": "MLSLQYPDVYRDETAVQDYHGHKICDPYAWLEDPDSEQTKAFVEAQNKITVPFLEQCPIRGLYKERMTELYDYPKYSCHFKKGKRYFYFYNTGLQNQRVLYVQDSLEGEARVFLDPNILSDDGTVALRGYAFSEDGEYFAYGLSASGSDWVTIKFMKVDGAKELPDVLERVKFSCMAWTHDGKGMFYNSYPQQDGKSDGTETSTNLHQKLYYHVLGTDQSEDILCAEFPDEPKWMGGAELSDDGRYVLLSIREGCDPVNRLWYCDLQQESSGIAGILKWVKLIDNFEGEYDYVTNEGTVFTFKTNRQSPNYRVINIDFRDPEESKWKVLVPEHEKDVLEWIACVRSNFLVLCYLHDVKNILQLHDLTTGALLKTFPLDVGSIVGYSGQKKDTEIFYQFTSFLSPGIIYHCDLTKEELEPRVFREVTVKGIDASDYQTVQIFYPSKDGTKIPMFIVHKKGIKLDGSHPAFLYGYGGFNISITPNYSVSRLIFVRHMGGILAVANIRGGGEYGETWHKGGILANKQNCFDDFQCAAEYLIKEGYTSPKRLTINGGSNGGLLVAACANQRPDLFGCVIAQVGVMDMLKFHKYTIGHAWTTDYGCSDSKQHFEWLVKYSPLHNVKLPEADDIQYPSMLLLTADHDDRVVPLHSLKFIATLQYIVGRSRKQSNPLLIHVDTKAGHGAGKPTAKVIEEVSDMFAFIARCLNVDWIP", "assay": "Inhibition of h-POP"}, "Dipeptidyl peptidase 8": {"target": "Dipeptidyl peptidase 8 (Homo sapiens, UniProt Q6V1X1)", "sequence (Q6V1X1 whole entry)": "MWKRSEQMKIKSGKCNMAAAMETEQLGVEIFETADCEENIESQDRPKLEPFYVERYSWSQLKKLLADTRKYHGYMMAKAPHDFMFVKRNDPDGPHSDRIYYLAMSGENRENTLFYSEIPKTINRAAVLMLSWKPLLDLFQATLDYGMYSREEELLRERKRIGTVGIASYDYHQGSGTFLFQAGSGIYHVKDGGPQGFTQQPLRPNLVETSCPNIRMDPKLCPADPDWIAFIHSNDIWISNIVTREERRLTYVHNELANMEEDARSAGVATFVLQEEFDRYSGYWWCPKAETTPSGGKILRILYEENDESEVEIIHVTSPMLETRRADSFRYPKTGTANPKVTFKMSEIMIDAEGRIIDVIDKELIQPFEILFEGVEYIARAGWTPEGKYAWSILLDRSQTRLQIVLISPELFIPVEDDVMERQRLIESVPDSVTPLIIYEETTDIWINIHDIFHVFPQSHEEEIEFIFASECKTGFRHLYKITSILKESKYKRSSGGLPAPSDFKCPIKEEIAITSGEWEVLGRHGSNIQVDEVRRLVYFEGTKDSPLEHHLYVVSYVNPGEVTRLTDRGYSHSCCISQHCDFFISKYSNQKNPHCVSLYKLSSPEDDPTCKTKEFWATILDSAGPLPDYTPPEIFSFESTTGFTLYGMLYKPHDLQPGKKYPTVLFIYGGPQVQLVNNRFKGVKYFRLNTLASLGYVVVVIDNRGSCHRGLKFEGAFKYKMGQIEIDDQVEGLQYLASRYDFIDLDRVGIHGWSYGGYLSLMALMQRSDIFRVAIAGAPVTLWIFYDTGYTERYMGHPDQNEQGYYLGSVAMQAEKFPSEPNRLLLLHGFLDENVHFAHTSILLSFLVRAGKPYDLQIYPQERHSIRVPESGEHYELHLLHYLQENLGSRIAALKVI", "assay": "Inhibition of h-DPP8"}, "Dipeptidyl peptidase 9": {"target": "Dipeptidyl peptidase 9 (Homo sapiens, UniProt Q86TI2)", "sequence (Q86TI2 whole entry)": "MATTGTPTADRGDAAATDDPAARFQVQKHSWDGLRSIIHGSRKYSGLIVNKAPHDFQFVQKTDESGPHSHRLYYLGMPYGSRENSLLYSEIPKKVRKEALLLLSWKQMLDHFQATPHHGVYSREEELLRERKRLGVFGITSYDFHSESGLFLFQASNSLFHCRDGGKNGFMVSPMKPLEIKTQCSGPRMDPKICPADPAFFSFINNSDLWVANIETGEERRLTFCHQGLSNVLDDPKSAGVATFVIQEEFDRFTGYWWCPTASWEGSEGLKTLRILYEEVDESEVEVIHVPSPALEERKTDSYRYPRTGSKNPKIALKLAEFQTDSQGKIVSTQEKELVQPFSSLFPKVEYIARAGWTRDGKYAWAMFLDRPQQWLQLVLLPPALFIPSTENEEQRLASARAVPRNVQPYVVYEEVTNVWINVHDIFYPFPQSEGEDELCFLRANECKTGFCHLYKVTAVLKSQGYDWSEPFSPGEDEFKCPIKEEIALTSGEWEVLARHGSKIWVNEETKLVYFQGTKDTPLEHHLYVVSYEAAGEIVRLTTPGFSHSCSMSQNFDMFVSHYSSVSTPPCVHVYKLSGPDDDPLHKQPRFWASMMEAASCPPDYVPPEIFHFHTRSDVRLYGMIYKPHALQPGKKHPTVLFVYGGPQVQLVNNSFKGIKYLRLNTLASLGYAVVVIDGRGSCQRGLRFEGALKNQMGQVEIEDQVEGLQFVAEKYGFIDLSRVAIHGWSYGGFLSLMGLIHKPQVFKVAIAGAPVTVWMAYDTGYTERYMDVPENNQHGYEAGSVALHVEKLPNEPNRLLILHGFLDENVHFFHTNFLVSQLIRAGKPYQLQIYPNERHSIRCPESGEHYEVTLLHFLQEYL", "assay": "Inhibition of h-DPP9"}, "Dipeptidyl peptidase 4 [2]": {"target": "T1, Dipeptidyl peptidase 4", "assay": "Human DPPIV plasma binding (0% plasma)", "assay_type": "cell-free"}},
  "data": [
    {"molecule": "Cn1ncc2nc(N3CCCC(N)C3)n(Cc3cccc(CC#N)c3)c2c1=O", "note": "(stereo not drawn)", "values": [
      {"measurement": "Ki", "setting": "Dipeptidyl peptidase 4 [1]", "value": 11, "unit": "nM"},
      {"measurement": "Ki", "setting": "Prolyl endopeptidase", "value": "> 30000", "unit": "nM"},
      {"measurement": "Ki", "setting": "Dipeptidyl peptidase 8", "value": "> 3000", "unit": "nM"}
    ]},
    {"molecule": "NC1CCCN(c2nc3c(n2Cc2ccccc2C(F)(F)F)C(=O)c2ccccc2C3=O)C1", "note": "(stereo not drawn)", "values": [
      {"measurement": "Ki", "setting": "Dipeptidyl peptidase 4 [1]", "value": 25, "unit": "nM"},
      {"measurement": "Ki", "setting": "Dipeptidyl peptidase 9", "value": "> 3000", "unit": "nM"},
      {"measurement": "Ki", "setting": "Dipeptidyl peptidase 8", "value": "> 30000", "unit": "nM"}
    ]},
    {"molecule": "CN1C(=O)C=C(N2CCC[C@@H](N)C2)C(Cc2ccccc2C#N)C1=O", "note": "(stereo partly drawn)", "values": [
      {"measurement": "IC50", "setting": "Dipeptidyl peptidase 4 [1]", "value": 4, "unit": "nM"}
    ]},
    {"molecule": "Cn1c(=O)c2c(nc(N3CCCC(N)C3)n2Cc2ccccc2C#N)n(C)c1=O", "note": "(stereo not drawn)", "values": [
      {"measurement": "Ki", "setting": "Dipeptidyl peptidase 4 [2]", "value": 2, "unit": "nM"},
      {"measurement": "Ki", "setting": "Dipeptidyl peptidase 4 [1]", "value": 2, "unit": "nM"},
      {"measurement": "Ki", "setting": "Prolyl endopeptidase", "value": "> 30000", "unit": "nM"},
      {"measurement": "Ki", "setting": "Dipeptidyl peptidase 8", "value": "> 30000", "unit": "nM"}
    ]},
    {"molecule": "Cn1c(=O)c2nc(N3CCCC(N)C3)n(Cc3ccccc3C#N)c2c(=O)n1C", "note": "(stereo not drawn)", "values": [
      {"measurement": "Ki", "setting": "Prolyl endopeptidase", "value": "> 30000", "unit": "nM"}
    ]},
    {"molecule": "CN1C(=O)c2nc(N3CCCC(N)C3)n(Cc3ccccc3C#N)c2C1=O", "note": "(stereo not drawn)", "values": [
      {"measurement": "Ki", "setting": "Prolyl endopeptidase", "value": "> 30000", "unit": "nM"},
      {"measurement": "Ki", "setting": "Dipeptidyl peptidase 9", "value": "> 3000", "unit": "nM"}
    ]},
    {"molecule": "Cn1ncc2c(nc(N3CCCC(N)C3)n2Cc2ccccc2C#N)c1=O", "note": "(stereo not drawn)", "values": [
      {"measurement": "Ki", "setting": "Dipeptidyl peptidase 4 [1]", "value": 260, "unit": "nM"}
    ]},
    {"molecule": "Cn1ncc2nc(N3CCCC(N)C3)n(Cc3ccccc3C#N)c2c1=O", "note": "(stereo not drawn)", "values": [
      {"measurement": "Ki", "setting": "Dipeptidyl peptidase 4 [1]", "value": 5, "unit": "nM"},
      {"measurement": "Ki", "setting": "Prolyl endopeptidase", "value": "> 30000", "unit": "nM"},
      {"measurement": "Ki", "setting": "Dipeptidyl peptidase 8", "value": "> 3000", "unit": "nM"}
    ]}
  ]
}
